Test results: patent US9708336B2, “Metallo-beta-lactamase inhibitors” (priority 2014, dated 2017)
pIC50: −log10 of the molar value. Like-named read-outs stand apart in the source and are kept apart here.

Legend:
[1] = target: NDM-1 (Klebsiella pneumoniae, UniProt C7C422); assay: biochemical; type: biochemical
[2] = system: Serratia marcescens expressing IMP-1 (CL5741); assay: Antibiotic potentiation activity: synergistic concentration (MITC95) with imipenem, OD600 growth; type: cell-based; settings: for Serratia marcescens expressing IMP-1 (CL5741) MITC95: concentration giving 95% inhibition of bacterial growth
How it was run: (§1)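 Test compound was combined with 4 μg/ml imipenem (or optionally 1 μg/ml), or with no antibiotic, against saline-suspended colonies diluted 1:100 in 1.1×CAMHB. Strains were E. coli NDM-1, S. marcescens IMP-1 and K. pneumoniae VIM-1. Plates were incubated 22–24 h at 35 °C before absorbance (OD600) readout.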

[3] = system: Klebsiella pneumoniae expressing VIM-1 (IHMA599644); assay: as above; type: cell-based; settings: for Klebsiella pneumoniae expressing VIM-1 (IHMA 599644) MITC95: concentration giving 95% inhibition of bacterial growth
How it was run: as §1

[4] = system: Escherichia coli expressing NDM-1 (CLB30005); assay: as above; type: cell-based; settings: for Escherichia coli expressing NDM-1 (CLB 30005) MITC95: concentration giving 95% inhibition of bacterial growth
How it was run: as §1

[5] = target: VIM-1 (Pseudomonas aeruginosa (strain ATCC 15692 / DSM 22644 / CIP 104116 / JCM 14847 / LMG 12228 / 1C / PRS 101 / PAO1), UniProt A0A0F7KYQ8); assay: Enzyme activity: determination of IC50, fluorescence assay with CCF2-FA substrate (VIM-1); type: biochemical
[6] = target: IMP-1 (Serratia marcescens, UniProt P52699); assay: biochemical; type: biochemical
[7] = fluorescence assay with CCF2-FA substrate, read-out: NDM-1 IC50
[8] = fluorescence assay with CCF2-FA substrate, read-out: VIM-1 IC50
[9] = fluorescence assay with CCF2-FA substrate, read-out: IMP-1 IC50

Sequence of NDM-1 (C7C422 whole entry, looked up, species assumed): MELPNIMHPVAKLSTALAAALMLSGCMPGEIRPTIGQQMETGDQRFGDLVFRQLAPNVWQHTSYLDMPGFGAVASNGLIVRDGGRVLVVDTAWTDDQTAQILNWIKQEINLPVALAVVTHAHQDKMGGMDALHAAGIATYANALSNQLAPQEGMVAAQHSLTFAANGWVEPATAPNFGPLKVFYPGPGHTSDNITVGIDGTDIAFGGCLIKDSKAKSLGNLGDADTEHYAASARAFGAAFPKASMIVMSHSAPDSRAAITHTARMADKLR
Sequence of IMP-1 (P52699 whole entry, looked up): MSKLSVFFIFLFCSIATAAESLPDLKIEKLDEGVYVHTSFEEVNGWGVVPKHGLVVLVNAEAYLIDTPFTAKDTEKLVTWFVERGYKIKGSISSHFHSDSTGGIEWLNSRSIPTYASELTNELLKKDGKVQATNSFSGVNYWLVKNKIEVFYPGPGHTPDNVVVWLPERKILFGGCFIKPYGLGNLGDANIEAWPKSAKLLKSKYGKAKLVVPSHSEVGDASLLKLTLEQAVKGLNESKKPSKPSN

NS(=O)(=O)c1cccc(-c2cnn(Cc3ccncc3)c2)c1-c1nn[nH]n1 [Example 100, 3-[1-(pyridin-4-ylmethyl)-1H-pyrazol-4-yl]-2-(2H-tetrazol-5-yl)benzenesulfonamide]
pIC50 [1, 7]: 7.53
Serratia marcescens expressing IMP-1 (CL5741) MITC95 [2]: 14.06 µM
Klebsiella pneumoniae expressing VIM-1 (IHMA 599644) MITC95 [3]: >200 µM
Escherichia coli expressing NDM-1 (CLB 30005) MITC95 [4]: 7.031 µM
pIC50 [5, 8]: 6.03
pIC50 [6, 9]: 6.84

CC(C)n1nccc1-c1cccc(S(N)(=O)=O)c1-c1nn[nH]n1 [Example 106, 3-[1-(1-methylethyl)-1H-pyrazol-5-yl]-2-(2H-tetrazol-5-yl)benzenesulfonamide]
pIC50 [1, 7]: 8.02
Serratia marcescens expressing IMP-1 (CL5741) MITC95 [2]: 62.5 µM
Klebsiella pneumoniae expressing VIM-1 (IHMA 599644) MITC95 [3]: 200 µM
Escherichia coli expressing NDM-1 (CLB 30005) MITC95 [4]: 3.906 µM
pIC50 [5, 8]: 6.02
pIC50 [6, 9]: 5.74

NS(=O)(=O)c1nccc(-c2ccc3[nH]ncc3c2)c1-c1nn[nH]n1 [Example 199, 4-(1H-indazol-5-yl)-3-(2H-tetrazol-5-yl)pyridine-2 sulfonamide]
pIC50 [1, 7]: 7.89
Serratia marcescens expressing IMP-1 (CL5741) MITC95 [2]: 6.25 µM
Klebsiella pneumoniae expressing VIM-1 (IHMA 599644) MITC95 [3]: 3.125 µM
Escherichia coli expressing NDM-1 (CLB 30005) MITC95 [4]: 0.3906 µM
pIC50 [5, 8]: 7.61
pIC50 [6, 9]: 6.49

CC(CO)Oc1ccc(-c2cccc(S(N)(=O)=O)c2-c2nn[nH]n2)cc1 (stereo not drawn) [Example 6, 4′-(2-hydroxy-1-methylethoxy)-2-(2H-tetrazol-5-yl)biphenyl-3-sulfonamide]
pIC50 [1]: 8.71
Serratia marcescens expressing IMP-1 (CL5741) MITC95 [2]: 50 µM
Klebsiella pneumoniae expressing VIM-1 (IHMA 599644) MITC95 [3]: >200 µM
Escherichia coli expressing NDM-1 (CLB 30005) MITC95 [4]: 1.563 µM
pIC50 [5, 8]: 7.37
pIC50 [6]: 7.40

NCc1nc(-c2ccc(-c3cccc(S(N)(=O)=O)c3-c3nn[nH]n3)cc2)no1 [Example 249, 4′-(5-(Aminomethyl)-1,2,4-oxadiazol-3-yl)-2-(2H-tetrazol-5-yl)-[1,1′-biphenyl]-3-sulfonamide]
pIC50 ([1]; NDM-1 enzyme, CCF2-FA fluorescence assay, read-out: NDM-1 IC50): 8.12
Serratia marcescens MITC95 ([2]; Serratia marcescens expressing IMP-1 (CL5741), 95% growth inhibition): 3.125 µM
Klebsiella pneumoniae MITC95 ([3]; Klebsiella pneumoniae expressing VIM-1 (IHMA599644), 95% growth inhibition): 50 µM
Escherichia coli MITC95 ([4]; Escherichia coli expressing NDM-1 (CLB30005), 95% growth inhibition): 0.7813 µM
pIC50 ([5]; VIM-1 enzyme, CCF2-FA fluorescence assay, read-out: VIM-1 IC50): 7.06
pIC50 ([6]; IMP-1 enzyme, CCF2-FA fluorescence assay, read-out: IMP-1 IC50): 6.98

NS(=O)(=O)c1cccc(-c2ccc(N3CCOCC3)cc2)c1-c1nn[nH]n1 [Example 12]
pIC50 [1, 7]: 8.46
Serratia marcescens expressing IMP-1 (CL5741) MITC95 [2]: 6.25 µM
Klebsiella pneumoniae expressing VIM-1 (IHMA 599644) MITC95 [3]: 200 µM
Escherichia coli expressing NDM-1 (CLB 30005) MITC95 [4]: 3.125 µM
pIC50 [5, 8]: 7.02
pIC50 [6, 9]: 7.38

N#CC1(c2ccc(-c3cccc(S(N)(=O)=O)c3-c3nnn[nH]3)cc2)CCOCC1 [Example 25, 4′-(4-cyanotetrahydro-2H-pyran-4-yl)-2-(1H-tetrazol-5-yl)biphenyl-3-sulfonamide]
pIC50 [1, 7]: > 9.20
Serratia marcescens expressing IMP-1 (CL5741) MITC95 [2]: 12.5 µM
Klebsiella pneumoniae expressing VIM-1 (IHMA 599644) MITC95 [3]: >200 µM
Escherichia coli expressing NDM-1 (CLB 30005) MITC95 [4]: 3.125 µM
pIC50 [5, 8]: 7.34
pIC50 [6, 9]: 8.44

NS(=O)(=O)c1cccc(-c2ccc(N3CCCCC3)cc2)c1-c1nn[nH]n1 [Example 18, 4′-piperidin-1-yl-2-(2H-tetrazol-5-yl)biphenyl-3-sulfonamide]
pIC50 [1, 7]: 8.69
Serratia marcescens expressing IMP-1 (CL5741) MITC95 [2]: 103.1 µM
Klebsiella pneumoniae expressing VIM-1 (IHMA 599644) MITC95 [3]: >200 µM
Escherichia coli expressing NDM-1 (CLB 30005) MITC95 [4]: 3.906 µM
pIC50 ([5]; VIM-1 IC50, fluorescence assay with CCF2-FA substrate): 6.49
pIC50 [6, 9]: 7.63

NS(=O)(=O)c1cccc(-c2ccc(C3CCNC3=O)cc2)c1-c1nnn[nH]1 (stereo not drawn) [Example 27, 4′-(2-oxopyrrolidin-3-yl)-2-(1H-tetrazol-5-yl)biphenyl-3-sulfonamide]
pIC50 [1, 7]: 8.65
Serratia marcescens expressing IMP-1 (CL5741) MITC95 [2]: 3.125 µM
Klebsiella pneumoniae expressing VIM-1 (IHMA 599644) MITC95 [3]: 200 µM
Escherichia coli expressing NDM-1 (CLB 30005) MITC95 [4]: 3.125 µM
pIC50 [5, 8]: 7.11
pIC50 [6, 9]: 7.88

NS(=O)(=O)c1cccc(-c2ccc3c(c2)OCCO3)c1-c1nn[nH]n1 [Example 56, 3-(2,3-dihydro-1,4-benzodioxin-6-yl)-2-(2H-tetrazol-5-yl)benzenesulfonamide]
pIC50 [1, 7]: 8.74
Serratia marcescens expressing IMP-1 (CL5741) MITC95 [2]: 14.06 µM
Klebsiella pneumoniae expressing VIM-1 (IHMA 599644) MITC95 [3]: 200 µM
Escherichia coli expressing NDM-1 (CLB 30005) MITC95 [4]: 2.344 µM
pIC50 [5, 8]: 7.36
pIC50 [6, 9]: 7.88
